The results in this text go back to PubChem BioAssay AID256 (DTP/NCI, 2004).

The test system of this experiment is CD2F1 mice, L1210 leukemia ip, survival T/C. In words: NCI In Vivo Anticancer Drug Screen. Data for tumor model L1210 Leukemia (intraperitoneal) in CD2F1 (CDF1) mice. As to conditions: endpoint: mean survival time, higher = longer survival. In a few lines:
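Read-out first: treated-group measurement over vehicle-control measurement, expressed as a ratio. Animals bore a transplanted tumor line and were dosed with compound or vehicle.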

Where [1] appears, read: dose: 100.0 mg/kg/injection, schedule: Q04DX003 (ip), vehicle: saline with Tween-80.
Where [2] appears, read: dose: 200.0 mg/kg/injection, schedule: Q04DX003 (ip), vehicle: saline with Tween-80.
The mark [3] stands for this setting: dose: 400.0 mg/kg/injection, schedule: Q04DX003 (ip), vehicle: saline with Tween-80.
Setting [4] is: dose: 100.0 mg/kg/injection, schedule: Q01DX001 (ip), vehicle: saline with Tween-80.
Setting [5] is: dose: 100.0 mg/kg/injection, schedule: Q04DX002 (ip), vehicle: saline with Tween-80.
[6] abbreviates: dose: 200.0 mg/kg/injection, schedule: Q01DX001 (ip), vehicle: saline with Tween-80.
[7] abbreviates: dose: 200.0 mg/kg/injection, schedule: Q04DX002 (ip), vehicle: saline with Tween-80.
[8] abbreviates: dose: 400.0 mg/kg/injection, schedule: Q01DX001 (ip), vehicle: saline with Tween-80.
Where [9] appears, read: dose: 400.0 mg/kg/injection, schedule: Q04DX002 (ip), vehicle: saline with Tween-80.
Where [10] appears, read: dose: 100.0 mg/kg/injection, schedule: Q01DX009 (ip), vehicle: saline with Tween-80.
[11] abbreviates: dose: 200.0 mg/kg/injection, schedule: Q01DX009 (ip), vehicle: saline with Tween-80.
Setting [12] is: dose: 400.0 mg/kg/injection, schedule: Q01DX009 (ip), vehicle: saline with Tween-80.
The mark [13] stands for this setting: dose: 100.0 mg/kg/injection, schedule: Q04DX003 (ip), vehicle: saline.
The mark [14] stands for this setting: dose: 200.0 mg/kg/injection, schedule: Q04DX003 (ip), vehicle: saline.

Toxic doses and inconclusive results are not listed.

Turning to `Nc1ncnc(N)c1NC(=O)c1cccc(OCc2ccccc2)c1`, the T/C by setting is: under setting [1], 100 % of control; under setting [2], 91 % of control; under setting [3], 94 % of control.

As for `O=C(O)c1c(Sc2ccccc2)cccc1Sc1ccccc1`, the T/C reads like this: (dose: 25.0 mg/kg/injection, schedule: Q04DX002 (ip), vehicle: saline with Tween-80) 93 % of control; (dose: 50.0 mg/kg/injection, schedule: Q04DX002 (ip), vehicle: saline with Tween-80) 93 % of control; under setting [4], 89 % of control; under setting [5], 93 % of control; under setting [6], 93 % of control; under setting [7], 95 % of control. Further, the T/C by setting is: under setting [8], 90 % of control; under setting [9], 87 % of control.

In the case of `CCCCOC(=O)c1ccc(NC(=O)Nc2ccccc2OC)cc1`, the T/C was 97 % of control under setting [10]; 108 % of control under setting [1]; 91 % of control under setting [11]; 103 % of control under setting [2]; 92 % of control under setting [12]; 88 % of control under setting [3].

Take `COc1ccc(C2(C#N)CCCC2)cc1`: the T/C by setting is: (dose: 100.0 mg/kg/injection, schedule: Q01DX009 (ip), vehicle: saline sonified) 94 % of control; under setting [1], 97 % of control; (dose: 200.0 mg/kg/injection, schedule: Q01DX009 (ip), vehicle: saline sonified) 102 % of control; under setting [2], 101 % of control; (dose: 400.0 mg/kg/injection, schedule: Q01DX009 (ip), vehicle: saline sonified) 96 % of control; under setting [3], 95 % of control.

Regarding `CC1(C)Oc2nc[nH]c(=O)c2C1c1ccccc1` (centres undefined), the T/C is, setting by setting: under setting [10], 115 % of control; under setting [1], 101 % of control; under setting [11], 107 % of control; under setting [2], 101 % of control; under setting [12], 98 % of control; under setting [3], 98 % of control.

As for `CNC(=O)CCl`, the T/C is, setting by setting: (dose: 25.0 mg/kg/injection, schedule: Q01DX009 (ip), vehicle: saline) 103 % of control; (dose: 50.0 mg/kg/injection, schedule: Q01DX009 (ip), vehicle: saline) 105 % of control; (dose: 100.0 mg/kg/injection, schedule: Q01DX009 (ip), vehicle: saline) 104 % of control.

On to `CCCCCCCCCCCCCCCCC/C=C1\CC(=O)OC1=O`, for which the T/C under setting [1] was 88 % of control.

Take `[B-][N+]12CN3CN(CN(C3)C1)C2`: where the note is “dose: 75.0 mg/kg/injection, schedule: Q01DX001 (ip), vehicle: saline”, the T/C was 101 % of control.

Take `C=CC1CC(=O)N1Cc1ccccc1` (centres undefined): the T/C was 97 % of control under setting [1], 92 % of control under setting [2] and 92 % of control under setting [3].

As for `CCCCNC(C)(C)C(SSSC(c1ccc(C(F)(F)F)cc1)C(C)(C)NCCCC)c1ccc(C(F)(F)F)cc1` (centres undefined), the T/C is 92 % of control under setting [13]; 94 % of control under setting [14]; 100 % of control (dose: 400.0 mg/kg/injection, schedule: Q04DX003 (ip), vehicle: saline).

As to `COc1cccc2c1C(=O)c1c(O)c3c(c(O)c1C2=O)C[C@@](O)(C(C)=O)C[C@@H]3OC1CC(N(Cc2ccccc2)Cc2ccccc2)C(O)C(C)O1` (some centres undefined), the T/C by setting is: (dose: 1.5 mg/kg/injection, schedule: Q01DX009 (ip), vehicle: saline with Tween-80) 105 % of control; (dose: 3.0 mg/kg/injection, schedule: Q01DX009 (ip), vehicle: saline with Tween-80) 111 % of control; (dose: 6.0 mg/kg/injection, schedule: Q01DX009 (ip), vehicle: saline with Tween-80) 117 % of control; (dose: 12.0 mg/kg/injection, schedule: Q01DX009 (ip), vehicle: saline with Tween-80) 150 % of control; (dose: 24.0 mg/kg/injection, schedule: Q01DX009 (ip), vehicle: saline with Tween-80) 115 % of control; (dose: 48.0 mg/kg/injection, schedule: Q01DX009 (ip), vehicle: saline with Tween-80) 94 % of control.

On to `NC(=O)c1nc(C2OC(CO)C(O)C2O)no1` (centres undefined), for which the T/C is 98 % of control (dose: 12.5 mg/kg/injection, schedule: Q01DX005 (ip), vehicle: water); 98 % of control (dose: 25.0 mg/kg/injection, schedule: Q01DX005 (ip), vehicle: water); 108 % of control (dose: 50.0 mg/kg/injection, schedule: Q01DX005 (ip), vehicle: water); 98 % of control (dose: 100.0 mg/kg/injection, schedule: Q01DX005 (ip), vehicle: water); 98 % of control (dose: 200.0 mg/kg/injection, schedule: Q01DX005 (ip), vehicle: water).

For the compound `Cn1c(=O)c2[nH]c(-c3ccccc3[N+](=O)[O-])nc2n(C)c1=O`, the T/C is 97 % of control (dose: 12.5 mg/kg/injection, schedule: Q01DX005 (ip), vehicle: other); 94 % of control (dose: 25.0 mg/kg/injection, schedule: Q01DX005 (ip), vehicle: other); 90 % of control (dose: 50.0 mg/kg/injection, schedule: Q01DX005 (ip), vehicle: other); 96 % of control (dose: 100.0 mg/kg/injection, schedule: Q01DX005 (ip), vehicle: other); 94 % of control (dose: 200.0 mg/kg/injection, schedule: Q01DX005 (ip), vehicle: other).

For `CCOC(=O)N1C=Cc2ccccc2C1/C(N)=N/O` (centres undefined), the T/C reads like this: under setting [4], 98 % of control; (dose: 100.0 mg/kg/injection, schedule: Q01DX009 (ip), vehicle: Klucel (hydroxypropylcellulose) (HPC)) 96 % of control; under setting [6], 95 % of control; (dose: 200.0 mg/kg/injection, schedule: Q01DX009 (ip), vehicle: Klucel (hydroxypropylcellulose) (HPC)) 91 % of control; under setting [8], 94 % of control; (dose: 400.0 mg/kg/injection, schedule: Q01DX009 (ip), vehicle: Klucel (hydroxypropylcellulose) (HPC)) 91 % of control.

Regarding `O=C(Cn1ccc(=O)[nH]c1=O)c1cc2ccccc2[nH]1`, the T/C under setting [5] is 93 % of control, the T/C under setting [7] was 93 % of control and the T/C under setting [9] was 93 % of control.

Regarding `[Au].[NH-]C1CCCCC1[NH-].[NH-]C1CCCCC1[NH-]` (centres undefined), the T/C by setting is: (dose: 3.13 mg/kg/injection, schedule: Q04DX003 (ip), vehicle: saline) 97 % of control; (dose: 6.25 mg/kg/injection, schedule: Q04DX003 (ip), vehicle: saline) 96 % of control; (dose: 12.5 mg/kg/injection, schedule: Q04DX003 (ip), vehicle: saline) 97 % of control; (dose: 25.0 mg/kg/injection, schedule: Q04DX003 (ip), vehicle: saline) 100 % of control.

For `O=C(Nc1ccccc1I)c1ccccc1`, the T/C by setting is: under setting [1], 110 % of control; under setting [2], 98 % of control; under setting [3], 98 % of control.

On to `N=C(N)SCSC(=N)N`, for which the T/C is, setting by setting: under setting [13], 100 % of control; under setting [14], 103 % of control.

As for `C1CC[N-]CC1.CC(=N\O)/C(C)=N/O.CC(=N\O)/C(C)=N/O.[CH2-]CCN1CCOCC1.[Co+2]`, the T/C (dose: 25.0 mg/kg/injection, schedule: Q01DX009 (ip), vehicle: saline with Tween-80) was 105 % of control; the T/C (dose: 25.0 mg/kg/injection, schedule: Q04DX003 (ip), vehicle: saline with Tween-80) is 103 % of control; the T/C (dose: 50.0 mg/kg/injection, schedule: Q01DX009 (ip), vehicle: saline with Tween-80) is 105 % of control; the T/C (dose: 50.0 mg/kg/injection, schedule: Q04DX003 (ip), vehicle: saline with Tween-80) was 106 % of control; the T/C under setting [1] is 112 % of control.

Take `CCCCOC(=O)CCC(NC(=O)c1ccc(N(C)Cc2cnc3nc(N)nc(N)c3n2)cc1)C(=O)O` (centres undefined): the T/C is 112 % of control (dose: 0.19 mg/kg/injection, schedule: Q01DX009 (ip), vehicle: water); 120 % of control (dose: 0.38 mg/kg/injection, schedule: Q01DX009 (ip), vehicle: water); 159 % of control (dose: 1.5 mg/kg/injection, schedule: Q01DX009 (ip), vehicle: water); 180 % of control (dose: 3.0 mg/kg/injection, schedule: Q01DX009 (ip), vehicle: water); 86 % of control (dose: 6.0 mg/kg/injection, schedule: Q01DX009 (ip), vehicle: water).
